The values below come from PMC11799252, “The differentiation state of small intestinal organoid models influences prediction of drug-induced toxicity” (Frontiers in Cell and Developmental Biology, 2025).

Data set [1] relates to proliferative duodenum organoids. Nature of the data set: Cell viability (Cell Titer Glo 3D, ATP) in proliferative organoid model. Particulars: for IC50: Homo sapiens, 72 h, read-out: IC50 (μM) Prolif. The protocol: (§1) Organoids were grown for 7–10 days then dissociated using TrypLE™ Express Enzyme, as described above. Single cells were resuspended in BME at a density of 5–6 × 10^5 cells/mL on ice and plated as 5 μL/well domes in clear-bottom 96-well plates (Corning). The domes were cured for 10–15 min at 37°C and overlaid with 100 μL of growth media replaced every 2–3 days.
(§2) Compounds were administered after 5–6 days in growth medium for proliferative organoids or after an additional 4 days in differentiation medium for differentiated organoids. Organoid media was replaced with 90 μL fresh media immediately prior to dosing. Compounds were diluted in growth or differentiation medium and administered as a 5-fold dilution series at 5-8 concentrations with corresponding 0.5% DMSO vehicle control (1% DMSO for aspirin), at 10 μL/well in triplicate. […] After 3 days of treatment, cultures were imaged by brightfield microscopy (THUNDER DMi8 inverted light microscope with a 2.5× objective and a DFC9000 GTC camera (Leica)). Wells were precluded from analysis on visual quality control (i.e., organoid loss due to BME degradation/dislodging or insufficient seeding density) congruent with cytotoxicity analysis. An equal volume of Cell Titer Glo 3D Reagent (Promega) was added to each well as described by the manufacturer’s instructions. Luminescence was measured on EnSight and EnVision (Perkin Elmer) plate readers and normalized to on-plate vehicle controls (0.5%–1% DMSO) in corresponding growth or differentiation medium. Experiments were conducted in technical triplicates and repeated in organoids from 3 different donors (donor demographics noted in Supplementary Table S1). Normalized viability was averaged at each concentration for each donor, and mean of donors was fit to a 4-Parameter Logistic (4PL) curve using Prism (GraphPad) to estimate the half-maximal inhibitory concentration (IC50) for each compound.
(§3) To compare toxicity responses of proliferative and differentiated organoids, proliferative organoids were grown 5–6 days in OGM prior to dosing, while differentiated organoids were transitioned to ODM for an additional 4 days prior to dosing (Figure 2A). Both proliferative and differentiated organoids were incubated with compounds or a 0.5%–1% DMSO vehicle control (as indicated) for 3 days prior to measuring ATP levels as a readout for cell viability. […] Compound-treated organoid ATP readouts were normalized to vehicle controls and a half-maximal inhibitory concentration (IC50) was calculated from dose-response curves of organoid viability for five compounds across 3 donor organoid lines.
On the technique in general: Cellular ATP, detected with luciferase, serves as a proxy for viable cell number.

Data set [2] can be described thus: Cell viability (Cell Titer Glo 3D, ATP) in differentiated organoid model. Particulars: human, differentiated duodenum organoids. The protocol:
as §1, §2, §3

Data set [3] relates to differentiated duodenum organoids. Described as above. Particulars: for IC50: Homo sapiens, read-out: IC50 (μM) Diff. On the procedure: as §1, §2, §3
The conditions of data set [4]: clinical, cited from earlier work.
The conditions of data set [5]: clinical plasma, cited from earlier work.
Setting [6] is: patients, ref Peters et al., 2019.
Setting [7] is: ref Peters et al., 2019, 2020, Belair et al.

Molecules are shown by their SMILES. Where two headings read alike, the source gives them in different places.

A word on the IC50: it is the concentration that inhibits the measured activity by half. By Cmax is commonly meant the maximum level reached in the sampled fluid or tissue. `CC(=O)Oc1ccccc1C(=O)O` [aspirin, Acetylsalicylic acid]: in data set [1] (200 µM, proliferative organoids, 3 days), the decline in viability entry was “no decline”. Moreover, the concentration for half-maximal inhibition (IC50) is 1770 µM in data set [1] and 626 µM in data set [3]. Further, the decreases in viability entry in data set [1] (below 100 µM, proliferative organoids, 3 days) was “minimal”; in data set [3] (below 100 µM, differentiated organoids, 3 days), “minimal”. Besides, the “IC50/Cmax Prolif.” value in data set [1] (human, 3 days) was determined as 65.9. The compound further returned a cytotoxicity at 3 days, 200 µM in data set [2] of around 25%. In addition, the “IC50/Cmax Diff.” value in data set [3] (human, 3 days) is on record as 23.3. Further, the “Incidence of Diarrhea (%)” value in data set [4] (oral dosing, ref Rampal et al., 2001) was “less than 2%”; in data set [4] (oral dosing, ref Rampal et al., 2001, listed as Aspirin), 1.8%. In addition, the Cmax in data set [5] (high-dose oral administration, ref Nagelschmitz et al. (2014)) is 26.9 µM.

As for `CNC(=O)c1cc(Oc2ccc(NC(=O)Nc3ccc(Cl)c(C(F)(F)F)c3)cc2)ccn1` [sorafenib], the IC50 in data set [1] was 10 µM; in data set [3] it was 8.42 µM. The “Incidence of Diarrhea (%)” value in data set [4] (setting [6]) is listed as 43%. Moreover, the Cmax in data set [5] (setting [7]) is 6.2 µM.

Turning to `CN(C)C/C=C/C(=O)Nc1cc2c(Nc3ccc(F)c(Cl)c3)ncnc2cc1O[C@H]1CCOC1` [afatinib], the figures for the IC50 in data set [1] and in data set [3] were 0.036 µM and 4.16 µM, respectively. For the same compound, the “fold increase in IC50, differentiated vs proliferative organoids” value in data set [3] (IC50 differentiated / IC50 proliferative) is reported as “over 100 fold”. Further, the “Incidence of Diarrhea (%)” value in data set [4] (setting [6]) is 96%. Moreover, the Cmax in data set [5] (setting [7]) was 0.078 µM.

As to `COc1cc2c(c(OC)c1OC)-c1ccc(OC)c(=O)cc1[C@@H](NC(C)=O)CC2` [colchicine], the Cmax in data set [5] (setting [7]) was 0.017 µM.
